Like-named read-outs stand apart in the source and are kept apart here.
Assays:
Tyromyces palustris = assay: Standard rot trial (Japan Wood Preservers Association Standard Test procedure) on glueline-treated plywood; format: cell-based; settings: phenol formaldehyde glue
[1] = cited from earlier work
[2] = Stability under the conditions of the glue-line treatment; format: physicochemical
decay causing fungi = assay: Efficacy in the glue-line under alkaline conditions (PF type glues); settings: alkaline conditions such as PF type glues
[3] = use rate 100 gram a.i./m^3 in the glueline of plywood from pinus spp
[4] = use rate 200 gram a.i./m^3 in the glueline of plywood from pinus spp
[5] = use rate 400 gram a.i./m^3 in the glueline of plywood from pinus spp
[6] = use rate 800 gram a.i./m^3 in the glueline of plywood from pinus spp

For `CC(C)(C)C(O)(CCc1ccc(Cl)cc1)Cn1cncn1` (stereo not shown) [tebuconazole], the “Efficacy against target organism (expressed as weight loss percent in a standard rot trial)” value (Tyromyces palustris; use rate 80 gram a.i./m^3 in the glueline of plywood from pinus spp) was 9.2%, the “Efficacy against target organism (expressed as weight loss percent in a standard rot trial)” value (Tyromyces palustris; use rate 160 gram a.i./m^3 in the glueline of plywood from pinus spp) was 20.9% and the “Efficacy against target organism (expressed as weight loss percent in a standard rot trial)” value (Tyromyces palustris; use rate 320 gram a.i./m^3 in the glueline of plywood from pinus spp) was 6.3%. For the same compound, the “Efficacy against target organism (expressed as weight loss percent in a standard rot trial)” value (Tyromyces palustris; use rate 640 gram a.i./m^3 in the glueline of plywood from pinus spp) was 18.5% and the “Use rate range (agricultural uses)” value [1] was 100–250 g/ha.

For `CC(C)(C)C(=O)C(Oc1ccc(Cl)cc1)n1cncn1` (racemic) [triadimefon, (±)1-(4-chlorophenoxy)-3,3-dimethyl-1-(1H-1,2,4-triazol-1-yl)butan-2-one], the “Efficacy against target organism (expressed as weight loss percent in a standard rot trial)” value (Tyromyces palustris; [3]) was 3.7%, the “Efficacy against target organism (expressed as weight loss percent in a standard rot trial)” value (Tyromyces palustris; [4]) was 0.5% and the “Efficacy against target organism (expressed as weight loss percent in a standard rot trial)” value (Tyromyces palustris; [5]) was 0.9%. For the same compound, the “Efficacy against target organism (expressed as weight loss percent in a standard rot trial)” value (Tyromyces palustris; [6]) was 1.4%, the “Stability under the conditions of the glue-line treatment” value ([2]; glue-line treatment) was “stable” and the “Use rate range (agricultural uses)” value [1] was 125–500 g/ha.

In the case of `CC(C)(C)C(O)C(Oc1ccc(Cl)cc1)n1cncn1` (racemic) [triadimenol, (±) 1-(4-chlorophenoxy)-3,3-dimethyl-1-(1H-1,2,4-triazol-1-yl)butan-2-ol], the “Efficacy relative to triadimefon” value (decay causing fungi) is given as “same efficacy as triadimefon”, the “Stability under the conditions of the glue-line treatment” value [2] is given as “stable” and the “Use rate range (agricultural uses)” value [1] is given as 125–500 g/ha.

In the case of `CCCC1COC(Cn2cncn2)(c2ccc(Cl)cc2Cl)O1` (stereo not shown) [propiconazole], the “Efficacy against target organism (expressed as weight loss percent in a standard rot trial)” value (Tyromyces palustris; [3]) is reported as 20.5%, the “Efficacy against target organism (expressed as weight loss percent in a standard rot trial)” value (Tyromyces palustris; [4]) is reported as 7.6% and the “Efficacy against target organism (expressed as weight loss percent in a standard rot trial)” value (Tyromyces palustris; [5]) is reported as 21.4%. For the same compound, the “Efficacy against target organism (expressed as weight loss percent in a standard rot trial)” value (Tyromyces palustris; [6]) was 1.8% and the “Use rate range (agricultural uses)” value [1] was 100–150 g/ha.

Reference: patent publication US7691444B2, “Preservatives for wood-based products” (LANXESS Deutschland GmbH, priority 2002, dated 2010)
